{"source": "patent US20060052357A1", "about": "“Organometallic anti-tumour agent” (priority 2001, published 2006)", "experiment": "Toxicity investigations", "format": "in vivo, five laboratory species", "conditions": "5 mg/kg of body weight", "method": "The toxicity of the complex (C5H7O2)2—Cu—C13H18Cl2N2O2 of the invention was determined on five laboratory species in various tests. […] It was additionally possible to show in the investigations that (C5H7O2)2—Cu—C13H18Cl2N2O2 induces no resistance even on prolonged administration.", "data": [{"compound": "CC(=O)C=C(C)[O-].CC(=O)C=C(C)[O-].NC(Cc1ccc(N(CCCl)CCCl)cc1)C(=O)O.[Cu+2]", "note": "(stereo not drawn) [MOC.melphalan, (C5H7O2)2—Cu—C13H18Cl2N2O2]", "values": [{"measurement": "changes in organs and tissues", "result": "no specific changes"}, {"measurement": "changes in the peripheral blood count", "result": "no serious changes"}, {"measurement": "effects on renal and hepatic function", "result": "no pathological effects"}]}]}
